Laboratory results published in patent USRE39616E1, “Aminoindan derivatives” (priority 1996, dated 2007).

Assays:
MAO-A [1] = target: T1, MAO-A (Mus musculus, UniProt Q64133); experiment: Inhibition of MAO activity ex vivo (brain); type: in vivo, mice; details: mice, brain tissue
T1 construct: from tissue; host or cells: mouse brain
T1 sequence (Q64133 1-526): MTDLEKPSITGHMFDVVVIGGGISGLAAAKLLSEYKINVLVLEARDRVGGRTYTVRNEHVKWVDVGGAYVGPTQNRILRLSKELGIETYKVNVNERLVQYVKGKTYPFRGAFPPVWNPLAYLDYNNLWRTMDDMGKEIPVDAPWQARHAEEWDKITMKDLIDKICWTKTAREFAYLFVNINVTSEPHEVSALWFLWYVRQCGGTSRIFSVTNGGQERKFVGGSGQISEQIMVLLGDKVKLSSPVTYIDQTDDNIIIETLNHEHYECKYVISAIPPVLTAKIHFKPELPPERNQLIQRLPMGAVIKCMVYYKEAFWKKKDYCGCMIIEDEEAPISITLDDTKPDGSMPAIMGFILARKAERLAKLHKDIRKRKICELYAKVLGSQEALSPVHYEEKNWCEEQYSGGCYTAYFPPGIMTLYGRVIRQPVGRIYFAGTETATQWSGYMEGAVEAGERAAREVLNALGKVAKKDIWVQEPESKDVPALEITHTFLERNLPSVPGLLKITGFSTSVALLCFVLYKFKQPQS
Method: (§1) Substrate concentrations used were 50 μM (PEA) and 1 mM (5-HT).
(§2) Male Sabra mice, weighing 45-50 g were injected with test compound solutions (prepared in 0.9% saline). Each dose was administered to two or three mice. The mice were sacrificed two hours after drug administration or at a time corresponding to the peak AChE inhibition time (see Table 11). The brain and liver were rapidly dissected and stored in appropriate vials on ice. The tissues were weighed, diluted to ½ in sucrose 0.3M and stored at −20° C. before performance of the MAO assay described above. The results given in Table 11 relate to measurements made on brain tissue only.

MAO-B [2] = target: T2, MAO-B (Mus musculus, UniProt Q8BW75); experiment: Inhibition of MAO activity ex vivo (brain); type: in vivo, mice; details: mice, brain tissue
T2 construct: from tissue; host or cells: mouse brain
T2 sequence (Q8BW75 1-520): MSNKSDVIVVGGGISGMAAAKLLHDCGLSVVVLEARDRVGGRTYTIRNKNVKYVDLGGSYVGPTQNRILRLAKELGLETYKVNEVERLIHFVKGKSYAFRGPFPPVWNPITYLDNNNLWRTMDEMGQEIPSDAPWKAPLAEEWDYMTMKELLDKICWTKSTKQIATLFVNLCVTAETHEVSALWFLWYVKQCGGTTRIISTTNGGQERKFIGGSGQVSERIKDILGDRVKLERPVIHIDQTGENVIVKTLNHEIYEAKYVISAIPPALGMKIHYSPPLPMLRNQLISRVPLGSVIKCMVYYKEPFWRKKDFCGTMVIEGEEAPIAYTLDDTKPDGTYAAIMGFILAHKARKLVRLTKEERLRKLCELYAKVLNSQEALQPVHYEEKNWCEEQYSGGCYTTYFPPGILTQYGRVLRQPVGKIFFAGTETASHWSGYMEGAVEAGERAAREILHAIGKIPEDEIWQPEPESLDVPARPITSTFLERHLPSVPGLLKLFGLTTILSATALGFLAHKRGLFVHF
Method: as §1, §2

MAO-A [3] = target: T3, MAO-A (Rattus norvegicus, UniProt P21396); experiment: Inhibition of MAO activity in vitro, 5-HT as substrate; type: biochemical; parameters: The MAO enzyme source was a homogenate of rat brain in 0.3M sucrose; from tissue; host or cells: rat brain homogenate, 600 g supernatant; details: MAO-A Inhibition In vitro IC50, rat brain homogenate, 5-HT substrate
T3 sequence (P21396 1-526): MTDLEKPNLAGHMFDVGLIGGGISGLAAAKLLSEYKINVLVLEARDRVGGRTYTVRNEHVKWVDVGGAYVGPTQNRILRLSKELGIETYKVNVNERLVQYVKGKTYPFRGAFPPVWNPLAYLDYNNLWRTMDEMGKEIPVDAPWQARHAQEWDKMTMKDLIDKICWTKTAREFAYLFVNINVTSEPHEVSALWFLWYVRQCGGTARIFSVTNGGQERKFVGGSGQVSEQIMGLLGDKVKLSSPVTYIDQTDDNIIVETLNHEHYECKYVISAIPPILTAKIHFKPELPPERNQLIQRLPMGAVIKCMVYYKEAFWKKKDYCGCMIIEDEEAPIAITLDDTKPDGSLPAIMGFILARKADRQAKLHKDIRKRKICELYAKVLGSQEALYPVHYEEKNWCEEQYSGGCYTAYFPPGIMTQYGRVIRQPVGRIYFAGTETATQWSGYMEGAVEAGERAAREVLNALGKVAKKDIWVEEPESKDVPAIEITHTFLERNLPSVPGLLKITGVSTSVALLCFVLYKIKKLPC
Method: as §1

whole brain AChE = target: T4, whole brain AChE (Mus musculus, UniProt P21836); details: for AChE Inhibition Ex vivo ED50 (AC): mice, whole brain, at peak of activity
T4 sequence (P21836 32-614): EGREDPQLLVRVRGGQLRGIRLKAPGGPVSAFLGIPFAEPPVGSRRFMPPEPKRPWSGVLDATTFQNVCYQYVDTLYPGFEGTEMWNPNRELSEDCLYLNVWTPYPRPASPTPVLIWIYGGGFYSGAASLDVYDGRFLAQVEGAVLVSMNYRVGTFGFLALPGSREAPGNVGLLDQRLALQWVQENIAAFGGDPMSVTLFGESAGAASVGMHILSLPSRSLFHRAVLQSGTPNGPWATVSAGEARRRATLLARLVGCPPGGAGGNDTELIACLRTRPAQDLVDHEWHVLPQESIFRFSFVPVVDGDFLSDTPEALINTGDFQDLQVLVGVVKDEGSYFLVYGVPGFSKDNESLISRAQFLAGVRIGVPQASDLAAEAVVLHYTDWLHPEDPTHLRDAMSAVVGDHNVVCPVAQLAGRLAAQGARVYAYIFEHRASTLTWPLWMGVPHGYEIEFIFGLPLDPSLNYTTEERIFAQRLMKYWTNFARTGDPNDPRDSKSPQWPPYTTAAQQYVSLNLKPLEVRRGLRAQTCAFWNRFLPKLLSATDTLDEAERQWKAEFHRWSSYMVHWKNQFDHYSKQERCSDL
Method: Test drugs or saline were administered sub-cutaneously to male mice (Sabra strain, 28-35 g). […] The mice were sacrificed 15, 30, 50, 70, 90, 120 or 180 minutes after drug administration, the brains rapidly removed (minus cerebellum), weighed and homogenized in 0.1 M phosphate buffer, pH 8.0, containing Triton (1 mg/100 g tissue) and centrifuged to remove cell debris. Aliquots (25 μl) of the supernatant were then incubated with acetylthiocholine and DTNB. AChE activity was measured as described above. The % inhibition of whole brain AChE by each dose of drug was calculated by comparison with enzyme activity from 3 saline treated control mice run at the same time.

mice = details: mouse, in vivo
Method: Therapeutic Ratio was calculated as LD50 divided by ED50 of ex vivo acetylcholine esterase inhibition.

[4] = target: T5, Human erythrocyte acetylcholinesterase (Homo sapiens, UniProt P22303); experiment: biochemical; type: biochemical; details: AChE Inhibition In vitro IC50
T5 construct: Human erythrocyte acetylcholinesterase (type XIII, Sigma Israel); purchased Sigma Israel type XIII; host or cells: human erythrocytes
Method: Human erythrocyte acetylcholinesterase (type XIII, Sigma Israel), was prepared in a stock solution of 1 U/ml, containing Triton (1%) and bovine serum albumin (0.05%) in phosphate buffer (pH 8). The enzyme (0.05U) was incubated with 3-5 different concentrations of test compound (in triplicate) for periods of from 15 to 60 minutes at 37° C. […] The percentage inhibition of AChE by each concentration of drug is calculated by comparison with that of enzyme in the absence of drug.

MAO-B [5] = target: T6, MAO-B (Rattus norvegicus, UniProt P19643); experiment: Inhibition of MAO activity in vitro, PEA as substrate; type: biochemical; parameters: The MAO enzyme source was a homogenate of rat brain in 0.3M sucrose; from tissue; host or cells: rat brain homogenate, 600 g supernatant; details: MAO-B Inhibition In vitro IC50, rat brain homogenate
T6 sequence (P19643 1-520): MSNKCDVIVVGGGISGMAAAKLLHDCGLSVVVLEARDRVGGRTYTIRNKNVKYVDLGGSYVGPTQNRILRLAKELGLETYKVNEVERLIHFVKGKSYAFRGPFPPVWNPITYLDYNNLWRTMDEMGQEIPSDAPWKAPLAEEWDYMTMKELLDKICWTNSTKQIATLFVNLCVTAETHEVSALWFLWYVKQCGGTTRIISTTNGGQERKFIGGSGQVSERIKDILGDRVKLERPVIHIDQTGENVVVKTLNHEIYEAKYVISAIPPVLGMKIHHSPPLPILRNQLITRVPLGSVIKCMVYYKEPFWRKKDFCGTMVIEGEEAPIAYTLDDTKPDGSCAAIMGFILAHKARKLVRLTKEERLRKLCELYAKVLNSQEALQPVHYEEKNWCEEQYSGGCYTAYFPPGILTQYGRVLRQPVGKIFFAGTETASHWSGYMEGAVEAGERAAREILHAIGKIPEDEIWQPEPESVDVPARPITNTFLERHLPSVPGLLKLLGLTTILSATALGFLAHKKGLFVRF
Method: as §1

T5 sequence (P22303 32-617 isoform P22303-2 limits assumed): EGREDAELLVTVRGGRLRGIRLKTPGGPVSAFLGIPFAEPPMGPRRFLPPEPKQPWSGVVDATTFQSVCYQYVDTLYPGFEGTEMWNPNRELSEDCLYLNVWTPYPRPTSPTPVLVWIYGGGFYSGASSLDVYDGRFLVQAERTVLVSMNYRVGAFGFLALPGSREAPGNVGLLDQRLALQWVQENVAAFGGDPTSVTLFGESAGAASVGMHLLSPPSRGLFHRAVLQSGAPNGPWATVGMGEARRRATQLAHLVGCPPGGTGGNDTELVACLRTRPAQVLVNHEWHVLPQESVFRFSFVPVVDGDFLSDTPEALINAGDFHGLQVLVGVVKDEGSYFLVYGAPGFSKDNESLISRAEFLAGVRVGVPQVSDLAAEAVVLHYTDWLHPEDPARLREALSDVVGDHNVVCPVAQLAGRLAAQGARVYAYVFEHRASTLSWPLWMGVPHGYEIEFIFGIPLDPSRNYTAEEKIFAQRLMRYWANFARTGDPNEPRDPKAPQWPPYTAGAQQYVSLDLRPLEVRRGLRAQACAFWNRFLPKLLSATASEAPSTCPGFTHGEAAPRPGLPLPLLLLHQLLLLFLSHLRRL

SMILES	MAO-A Inhibition Ex vivo ED50 (MAO-A [1])	MAO-B Inhibition Ex vivo ED50 (MAO-B [2])	IC50 (MAO-A [3])	AChE Inhibition Ex vivo ED50 (AC) (whole brain AChE)	AChE Inhibition Time to peak activity t (whole brain AChE; mouse, in vivo)	Acute Toxicity LD50 (LD) (mice)	Therapeutic Ratio LD/AC (mice)	IC50 [4]	IC50 (MAO-B [5])
C#CCN(C)C1CCc2cccc(OC(=O)N(C)C)c21 (stereo not shown) [Compound 32]	>>20 μmoles/kg	>>20 μmoles/kg	190 µM	7.8 µmol/kg	15 min	68 µmol/kg	9.0	3.7 µM	500 µM
C#CCNC1CCc2ccc(OC(=O)N(C)CCCCCC)cc21 (stereo not shown) [Compound 36]	>100 µmol/kg	>100 µmol/kg	> 1000 µM	>400 µmol/kg		>1000 µmol/kg		15 µM	> 1000 µM
